The source made the active and inactive calls. The calls are words filed in the database; no cut-off is given here.

For assay [1], the system named is Candida albicans. As to the kind of experiment: Antifungal activity against Candida albicans ATCC 10231 assessed as inhibition of microbial growth by NCCLS protocol based method. In kind it is functional.
The subject of assay [2] is Nakaseomyces glabratus. Kind of assay: Antifungal activity against Candida glabrata ATCC 0001 assessed as inhibition of microbial growth by NCCLS protocol based method. In kind it is functional.
The test system of assay [3] is Pichia kudriavzevii. Kind of assay: Antifungal activity against Candida krusei ATCC 6258 assessed as inhibition of microbial growth by NCCLS protocol based method. The class given is functional.
Assay [4] relates to Candida tropicalis. Kind of assay: Antifungal activity against Candida tropicalis ATCC 1369 assessed as inhibition of microbial growth by NCCLS protocol based method. In kind it is functional.
Assay [5] has as its system Aspergillus fumigatus. Kind of assay: Antifungal activity against Aspergillus fumigatus KM8001 assessed as inhibition of microbial growth by NCCLS protocol based method. In kind it is functional.
Assay [6] has as its system Candida albicans. As to the kind of experiment: Antifungal activity against fluconazole-resistant Candida albicans 100 assessed as inhibition of microbial growth by NCCLS protocol based method. The class given is functional.
For assay [7], the system named is Candida albicans. Kind of assay: Antifungal activity against fluconazole-resistant Candida albicans 103 assessed as inhibition of microbial growth by NCCLS protocol based method. In kind it is functional.
In assay [8] the test system is Candida albicans. As to the kind of experiment: Antifungal activity against Candida albicans assessed as inhibition of microbial growth at 25 to 250 nM/mL by polarizing microscopy. The class given is functional, organism-based.
In assay [9] the test system is Candida albicans. Kind of assay: Antifungal activity against Candida albicans assessed as reduction in cell division at 25 to 250 nM/mL by polarizing microscopy. In kind it is functional, organism-based.
Assay [10] concerns Candida albicans. As to the kind of experiment: Antifungal activity against Candida albicans assessed as induction of microbial cell killing at 25 to 250 nM/mL by polarizing microscopy. The class given is functional, organism-based.
Assay [11] concerns Candida albicans. Kind of assay: Antifungal activity against Candida albicans assessed as reduction in cell volume at 25 to 250 nM/mL by polarizing microscopy. The class given is functional, organism-based.
Assay [12] deals with Candida albicans. Kind of assay: Antifungal activity against Candida albicans assessed as reduction in proportion of microbes at cell division phase at 25 to 250 nM/mL by polarizing microscopy. In kind it is functional, organism-based.
Assay [13] concerns Candida albicans. As to the kind of experiment: Antifungal activity against Candida albicans assessed as inhibition of microbial growth at 2.5 nM/mL by polarizing microscopy. The class given is functional, organism-based.
The subject of assay [14] is Candida albicans. As to the kind of experiment: Antifungal activity against Candida albicans assessed as induction of cell fracture at 2.5 nM/mL by polarizing microscopy. In kind it is functional, organism-based.
Assay [15] deals with Candida albicans. As to the kind of experiment: Inhibition of SE/CYP51 in Candida albicans ATCC SC5314 assessed as effect on sterol composition by measuring ergosterol level at 16 ug/ml incubated for 90 mins by HPLC analysis (reference value: 64.2%). Further details: scale not given: the % may be the effect or the level left.
The test system of assay [16] is Candida albicans. As to the kind of experiment: Inhibition of SE/CYP51 in Candida albicans ATCC SC5314 assessed as effect on sterol composition by measuring Eburicol level at 16 ug/ml incubated for 90 mins by HPLC analysis (reference value: 8.3%). Also on record: scale not given: the % may be the effect or the level left.
For assay [17], the system named is Candida albicans. Kind of assay: Inhibition of SE/CYP51 in Candida albicans ATCC SC5314 assessed as effect on sterol composition by measuring Lanosterol level at 16 ug/ml incubated for 90 mins by HPLC analysis (reference value: 10.99%). Further details: scale not given: the % may be the effect or the level left.
Assay [18] concerns Heme. Kind of assay: Binding affinity to heme by UV-Visible spectroscopy.
The test system of assay [19] is Candida albicans. As to the kind of experiment: Inhibition of SE/CYP51 in Candida albicans ATCC SC5314 assessed as effect on sterol composition by measuring Squalene level at 16 ug/ml incubated for 90 mins by HPLC analysis. Also on record: scale not given: the % may be the effect or the level left.
The test system of assay [20] is Heme. As to the kind of experiment: Binding affinity to heme by fluorescence spectrum analysis.
Assay [21] concerns Candida albicans. As to the kind of experiment: Inhibition of SE/CYP51 in Candida albicans ATCC SC5314 assessed as effect on sterol composition by measuring Unidentified sterol level at 16 ug/ml incubated for 90 mins by HPLC analysis (reference value: 16.51%). Also on record: scale not given: the % may be the effect or the level left.

The MIC is the least concentration at which growth counts as inhibited. `O=C(N[C@H](C(=O)NCc1ccncc1)c1ccccc1)c1ccc2ccccc2c1`: the MIC in assay [1] was 4 µg/mL; in assay [2], 8 µg/mL; in assay [3] it was 4 µg/mL; in assay [4], more than 16 µg/mL; in assay [5], more than 16 µg/mL.
Regarding `CC(C)[C@H](NC(=O)c1ccc2ccccc2c1)C(=O)NCc1ccncc1`, the MIC in assay [1] was 2 µg/mL; in assay [2], 0.5 µg/mL; in [3], 0.5 µg/mL; in assay [4] it was 2 µg/mL; in [5] it was 8 µg/mL.
Take `CC(C)[C@H](NC(=O)c1ccc2ccccc2c1)C(=O)NCc1cccnc1`: the MIC in [1] was 8 µg/mL; in assay [2], 2 µg/mL; in assay [3] it was 4 µg/mL; in [4] it was 2 µg/mL; in assay [5], more than 16 µg/mL.
Take `C[C@H](NC(=O)c1ccc2ccccc2c1)C(=O)NCc1ccncc1`: the MIC in assay [1] came to 0.25 µg/mL; in assay [2], 1 µg/mL; in assay [3] it was 0.5 µg/mL; in [4], 0.25 µg/mL; in assay [5] it was 2 µg/mL.
In the case of `O=C(N[C@H](C(=O)NCc1ccncc1)c1ccccc1)c1ccc2ccccc2n1`, the MIC in assay [1] was 2 µg/mL; in assay [2], more than 16 µg/mL; in assay [3], 4 µg/mL; in assay [4], more than 16 µg/mL; in assay [5], more than 16 µg/mL.
As for `O=C(CNC(=O)c1ccc2ccccc2n1)NCc1ccncc1`, the minimal inhibitory concentration (MIC) came to 0.25 µg/mL in [1]; 0.5 µg/mL in [2]; 0.5 µg/mL in assay [3]; 0.125 µg/mL in assay [4]; 2 µg/mL in assay [5]; 2 µg/mL in assay [6]. Moreover, the MIC in assay [7] is 1 µg/mL. Further, the “growth inhibition (GI)” value in assay [8] and in [13] was “Active” in each case. In addition, the result in assay [9], in assay [10], in assay [11], in [12] and in assay [14] was Active.
Turning to `C[C@H](NC(=O)c1ccc2ccccc2c1)C(=O)NCc1cccnc1`, the MIC amounted to 0.5 µg/mL in assay [1]; 1 µg/mL in [2]; 0.5 µg/mL in [3]; 2 µg/mL in assay [4]; 4 µg/mL in assay [5].
As to `O=C(CNC(=O)c1ccc2ccccc2c1)NCc1cccnc1`, the MIC in assay [1] was 1 µg/mL; in assay [2], 4 µg/mL; in assay [3], 2 µg/mL; in [4], 0.5 µg/mL; in [5], more than 16 µg/mL.
On to `CC(C)[C@H](NC(=O)c1ccc2ccccc2n1)C(=O)NCc1ccncc1`, for which the MIC is 0.5 µg/mL in assay [1]; 2 µg/mL in [2]; 0.5 µg/mL in [3]; 4 µg/mL in [4]; more than 16 µg/mL in [5].
In the case of `O=C(CNC(=O)c1ccc2ccccc2n1)NCc1cccnc1`, the MIC stood at 0.5 µg/mL in assay [1]; 2 µg/mL in [2]; 0.5 µg/mL in [3]; 1 µg/mL in [4]; 2 µg/mL in assay [5].
`OC(Cn1cncn1)(Cn1cncn1)c1ccc(F)cc1F` [FLUCONAZOLE]: the MIC in assay [1] is 0.5 µg/mL; in assay [2], 1 µg/mL; in assay [3], 0.5 µg/mL; in assay [4], 2 µg/mL; in [5] it was more than 16 µg/mL; in [6] it was more than 16 µg/mL. Further, in [7], the MIC was more than 16 µg/mL. For the same compound, in assay [8], the “growth inhibition (GI)” value was “Active”. For the same compound, the outcome in [9], in [10], in [11], in assay [12] and in [18] was Active. The “growth inhibition (GI)” value in assay [13] is “inactive”. The Activity in [15] amounted to 11.3%; in assay [16], 39.5%; in [17] it was 49.2%.
`O=C(CNC(=O)c1ccc2ccccc2c1)NCc1ccncc1`: the MIC in [1] amounted to 0.25 µg/mL; in [2], 0.25 µg/mL; in assay [3], 1 µg/mL; in assay [4], 0.5 µg/mL; in assay [5], 2 µg/mL.
With `C[C@H](NC(=O)c1ccc2ccccc2n1)C(=O)NCc1ccncc1`, the MIC in [1] came out at 0.125 µg/mL; in [2] it was 0.125 µg/mL; in assay [3], 0.25 µg/mL; in assay [4], 0.25 µg/mL; in assay [5], 1 µg/mL; in assay [6] it was 0.5 µg/mL. Besides, in assay [7], the MIC stood at 2 µg/mL. The “growth inhibition (GI)” value in [8] and in [13] was “Active” throughout. Besides, the outcome in assay [9], in [10], in assay [11], in assay [12], in assay [14] and in [18] was Active. Also, the Activity was 9.02% in assay [15]; 27.4% in assay [16]; 50.1% in assay [17]; 13.4% in assay [19]; “Dose-dependent effect” in assay [20].
For `C[C@H](NC(=O)c1ccc2ccccc2n1)C(=O)NCc1cccnc1`, the MIC is 1 µg/mL in [1]; 0.25 µg/mL in [2]; 2 µg/mL in assay [3]; 0.5 µg/mL in [4]; 8 µg/mL in assay [5].
The corresponding values for `CC(C)[C@H](NC(=O)c1ccc2ccccc2n1)C(=O)NCc1cccnc1` are 0.5 µg/mL, 0.5 µg/mL, 1 µg/mL, 2 µg/mL and 4 µg/mL.
The corresponding values for `O=C(N[C@H](C(=O)NCc1cccnc1)c1ccccc1)c1ccc2ccccc2c1` are more than 16 µg/mL, more than 16 µg/mL, 8 µg/mL, 8 µg/mL and more than 16 µg/mL.
`CN(C/C=C/C#CC(C)(C)C)Cc1cccc2ccccc12` [TERBINAFINE]: the MIC in assay [1] came to 0.25 µg/mL; in [2] it was 1 µg/mL; in assay [3], 0.5 µg/mL; in [4], 2 µg/mL; in assay [5] it was 2 µg/mL; in [6], 8 µg/mL. The MIC in [7] is 4 µg/mL. In [8], the “growth inhibition (GI)” value is “Active”. Moreover, the outcome in assay [9], in assay [10], in [11] and in [12] was Active. For the same compound, the “growth inhibition (GI)” value in [13] is “inactive”. Also, the Activity is 10.6% in assay [15]; 21.9% in assay [16]; 22.4% in assay [17]; 37.8% in assay [19]; 7.27% in assay [21].
Consider `O=C(N[C@H](C(=O)NCc1cccnc1)c1ccccc1)c1ccc2ccccc2n1`, for which the MIC in [1] is 8 µg/mL; in assay [2] it was 4 µg/mL; in assay [3] it was more than 16 µg/mL; in assay [4], 2 µg/mL; in assay [5], more than 16 µg/mL.

These data come from ChEMBL document CHEMBL4390641, “Design, synthesis and biological evaluation of amide-pyridine derivatives as novel dual-target (SE, CYP51) antifungal inhibitors” (2019).
